The nature of this data set: in vitro. The settings on record: human, hela cells, % viability.

In general, viability refers to a read-out of living cells in per cent, often relative to untreated cells.

Turning to `COc1ccc(Nc2ccc(-c3cccc(N(C)C)c3)cn2)cn1` [CBK037588], the viability at 28.5 h, 10 µM turned out to be 95.5%.

On to `O=C(Nc1ccc2ncccc2c1)c1cnc(-c2cccc(C(F)(F)F)c2)c(-c2cccnc2)c1` [CBK037591], for which the viability at 28.5 h, 10 µM worked out at 89.9%.

As for `COc1cc(CNc2cccc(-c3ccsc3)n2)cc(OC)c1` [CBK037592], the viability at 28.5 h, 10 µM worked out at 97.8%.

Consider `Cc1ccc(S(=O)(=O)NCC(=O)Nc2cnc(-c3cccc(C)c3)c(-c3ccc(N)cc3)n2)cc1` [CBK037600], for which the viability at 28.5 h, 10 µM is 83.5%.

As for `O=C(NC1CCN(Cc2ccccc2)CC1)c1cnc(-c2ccc(Cl)cc2)c(-c2cccnc2)c1` [CBK037602], the viability at 28.5 h, 10 µM was 92.2%.

As to `COc1ccc(-c2cc(C(=O)N[C@H]3CCN(Cc4ccccc4)C3)cnc2-c2ccccc2)cn1` [CBK037605], the viability at 28.5 h, 10 µM is 93.9%.

In the case of `COc1ccc(-c2ccc(Nc3cccc(N(C)C)c3)nc2)cc1OC` [CBK037606], the viability at 28.5 h, 10 µM amounted to 90%.

Regarding `COc1cc(Nc2cccc(-c3ccc4ccccc4c3)n2)cc(OC)c1OC` [CBK037612], the viability at 28.5 h, 10 µM was 97.9%.

Take `CO[C@@H](C(=O)Nc1cnc(-c2cccc(C)c2)c(-c2ccco2)n1)c1ccccc1` [CBK037613]: the viability at 28.5 h, 10 µM turned out to be 105%.

On to `C(=C\c1cccc(Nc2ccc(Oc3ccccc3)cc2)n1)/c1ccccc1` [CBK037614], for which the viability at 28.5 h, 10 µM was 94.1%.

In the case of `COC(=O)c1ccc(Nc2cccc(-c3cccc(N)c3)n2)cc1OC` [CBK037619], the viability at 28.5 h, 10 µM was 102%.

For `COc1ccc(-c2cc(C(=O)NCCS(C)(=O)=O)cnc2-c2ccc(Cl)cc2)cc1` [CBK037620], the viability at 28.5 h, 10 µM is 111%.

For the compound `Clc1ccc(-c2ccc(N3CCN(CCN4CCCC4)CC3)nc2)cc1` [CBK037623], the viability at 28.5 h, 10 µM was 97.8%.

With `COc1ccccc1-c1nccnc1N[C@H]1CCN(Cc2ccccc2)C1` [CBK037626], the viability at 28.5 h, 10 µM was 94.4%.

As for `CCCCN(C)c1nccnc1-c1cccnc1` [CBK037631], the viability at 28.5 h, 10 µM came to 99.2%.

Turning to `COc1ccc(-c2cccc(Nc3cc(OC)c(OC)c(OC)c3)n2)cc1OC` [CBK037634], the viability at 28.5 h, 10 µM came to 55.7%.

For `c1ccc(Oc2ccc(Nc3cccc(-c4ccc5ccccc5c4)n3)cc2)cc1` [CBK037636], the viability at 28.5 h, 10 µM came out at 112%.

Consider `COc1ccccc1-c1nccnc1NCC(C)O` (stereo not shown) [CBK037637], for which the viability at 28.5 h, 10 µM worked out at 90.4%.

For `O=C(c1ccco1)N1CCN(c2ccc(-c3cccc4cccnc34)cn2)CC1` [CBK037640], the viability at 28.5 h, 10 µM worked out at 72.4%.

On to `Fc1ccc(-c2ccc(Nc3cccnc3)nc2)cc1Cl` [CBK037642], for which the viability at 28.5 h, 10 µM was determined as 93%.

For `c1ccc(Oc2ccc(Nc3ccc(-c4cccc5cccnc45)cn3)cc2)cc1` [CBK037643], the viability at 28.5 h, 10 µM was found to be 105%.

Turning to `CCCC/C=C/c1cccc(Nc2cccnc2)n1` [CBK037645], the viability at 28.5 h, 10 µM is 103%.

On to `COc1cc(-c2nccnc2NCC2CCCCC2)cc(OC)c1OC` [CBK037647], for which the viability at 28.5 h, 10 µM was 93.9%.

Regarding `CCCCN(C)c1nccnc1-c1ccncc1` [CBK037655], the viability at 28.5 h, 10 µM was determined as 93.4%.

For `CS(=O)(=O)c1ccc(-c2nccnc2N2CCCCC2CO)cc1` (stereo not shown) [CBK037657], the viability at 28.5 h, 10 µM came to 102%.

As to `c1ccc(N2CCN(c3cccc(-c4ccco4)n3)CC2)nc1` [CBK037662], the viability at 28.5 h, 10 µM is 107%.

Consider `O=c1[nH]ccn1CCNc1ccc(-c2ccccc2Oc2ccccc2)cn1` [CBK037665], for which the viability at 28.5 h, 10 µM came out at 103%.

For the compound `CCCCN(C)c1nccnc1-c1ccc(CO)cc1` [CBK037666], the viability at 28.5 h, 10 µM was found to be 92.3%.

In the case of `CS(=O)(=O)c1ccc(-c2nccnc2N[C@@H]2CCN(Cc3ccccc3)C2)cc1` [CBK037667], the viability at 28.5 h, 10 µM was found to be 102%.

Turning to `OCc1cccc(-c2nccnc2NCc2ccc(F)cc2)c1` [CBK037670], the viability at 28.5 h, 10 µM turned out to be 103%.

With `COc1ccc(-c2nccnc2NCCCN(C)C)cc1` [CBK037671], the viability at 28.5 h, 10 µM stood at 93.9%.

With `Fc1cccc(F)c1-c1cc(Nc2ccc(N3CCOCC3)cc2)ncn1` [CBK037673], the viability at 28.5 h, 10 µM came out at 99.5%.

On to `CCOc1cccc(-c2ccc(Nc3ccc(Oc4ccccc4)cc3)nc2)c1` [CBK037679], for which the viability at 28.5 h, 10 µM was determined as 94.4%.

For the compound `O=C(c1ccco1)N1CCN(c2ccc(-c3ccc(F)c(Cl)c3)cn2)CC1` [CBK037683], the viability at 28.5 h, 10 µM worked out at 93.9%.

In the case of `c1cc(CCNc2cc(-c3ccc4c(c3)OCO4)ncn2)ccn1` [CBK037689], the viability at 28.5 h, 10 µM was determined as 99.5%.

For `FC(F)(F)c1cc(-c2cc(N3CCC(N4CCCCC4)CC3)ncn2)cc(C(F)(F)F)c1` [CBK037692], the viability at 28.5 h, 10 µM is 92.6%.

`CCN(CC)CCN1CCN(c2cc(-c3ccc4c(c3)OCO4)ncn2)CC1` [CBK037694]: the viability at 28.5 h, 10 µM is 86%.

Turning to `CN(C)c1cccc(-c2cccc(NCC(c3cccnc3)N(C)C)n2)c1` (stereo not shown) [CBK037697], the viability at 28.5 h, 10 µM came to 117%.

With `Fc1ccc(-c2cccc(Nc3ccc(Oc4ccccc4)cc3)n2)cc1Cl` [CBK037699], the viability at 28.5 h, 10 µM amounted to 102%.

Take `O=C(O)c1ccc(-c2ccc(N3CCN(C(=O)c4ccco4)CC3)nc2)cc1` [CBK037700]: the viability at 28.5 h, 10 µM was found to be 97.9%.

For `O=C(c1ccco1)N1CCN(c2ccc(/C=C/c3ccccc3)cn2)CC1` [CBK037701], the viability at 28.5 h, 10 µM is 98.7%.

`COc1cc(-c2ccc(Nc3cccnc3)nc2)cc(OC)c1OC` [CBK037704]: the viability at 28.5 h, 10 µM turned out to be 84.6%.

For the compound `c1ccc2c(c1)oc1cccc(-c3cc(NCCc4c[nH]cn4)ncn3)c12` [CBK037708], the viability at 28.5 h, 10 µM is 94.6%.

Take `CC(=O)Nc1cccc(-c2cc(Nc3ccc(N4CCN(Cc5ccccc5)CC4)cc3)ncn2)c1` [CBK037709]: the viability at 28.5 h, 10 µM amounted to 81.8%.

For the compound `O=[N+]([O-])c1cccc(-c2cc(N3CCC(N4CCCCC4)CC3)ncn2)c1` [CBK037710], the viability at 28.5 h, 10 µM amounted to 107%.

For the compound `c1cncc(-c2cc(NCCc3ccncc3)ncn2)c1` [CBK037716], the viability at 28.5 h, 10 µM came out at 114%.

As for `COc1cc(Nc2cccc(-c3ccco3)n2)cc(OC)c1OC` [CBK037724], the viability at 28.5 h, 10 µM amounted to 108%.

As for `COCCNc1cc(-c2ccncc2)ncn1` [CBK037729], the viability at 28.5 h, 10 µM came out at 87.6%.

Take `CCNc1cc(-c2cccc(N)c2)ncn1` [CBK037731]: the viability at 28.5 h, 10 µM was 96.4%.

As for `O=C(c1ccco1)N1CCN(c2cc(-c3cc(C(F)(F)F)cc(C(F)(F)F)c3)ncn2)CC1` [CBK037734], the viability at 28.5 h, 10 µM amounted to 102%.

Consider `O=C(c1ccco1)N1CCN(c2ccc(-c3cccc(Cl)c3Cl)cn2)CC1` [CBK037737], for which the viability at 28.5 h, 10 µM was determined as 95.4%.

`COc1cncc(-c2ccc(N3CCN(c4ccccc4C#N)CC3)nc2)c1` [CBK037738]: the viability at 28.5 h, 10 µM was determined as 107%.

Regarding `CCOc1cccc(-c2ccc(Nc3cccc(NC(=O)c4ccncc4)c3)nc2)c1` [CBK037739], the viability at 28.5 h, 10 µM is 49.4%.

For the compound `O=c1[nH]ccn1CCNc1ccc(-c2cccc(Cl)c2Cl)cn1` [CBK037745], the viability at 28.5 h, 10 µM was determined as 93.1%.

As to `COc1ccc(C(C)C)cc1-c1cc(Nc2cc(OC)c(OC)c(OC)c2)n2nccc2n1` [CBK037746], the viability at 28.5 h, 10 µM was determined as 103%.

Turning to `COc1ccc(C(=O)OC(C)(C)C)c(-c2cncc(NCc3ccco3)n2)c1` [CBK037751], the viability at 28.5 h, 10 µM worked out at 87.8%.

In the case of `CCN(CC)CCN1CCN(c2cc(-c3ccc(OC(F)(F)F)cc3)ncn2)CC1` [CBK037756], the viability at 28.5 h, 10 µM turned out to be 96.3%.

For `c1nc(Nc2ccc3[nH]ccc3c2)cc(-c2ccc3c(c2)OCO3)n1` [CBK037761], the viability at 28.5 h, 10 µM came out at 94.4%.

For `c1ccc(CCNc2cc(-c3cccc4ccccc34)ncn2)nc1` [CBK037762], the viability at 28.5 h, 10 µM was found to be 94.5%.

For `CN(C)CCN(C)c1cc(-c2cccc(-c3ccccc3)c2)ncn1` [CBK037763], the viability at 28.5 h, 10 µM was found to be 99.4%.

As for `c1coc(-c2ccc(Nc3ccc4c(c3)OCCO4)nc2)c1` [CBK037765], the viability at 28.5 h, 10 µM worked out at 96.9%.

For `O=C(O)CCc1ccc(-c2ccc(Nc3cccnc3)nc2)cc1` [CBK037768], the viability at 28.5 h, 10 µM worked out at 106%.

Turning to `COc1ccccc1-c1cccc(NCC(c2cccnc2)N(C)C)n1` (stereo not shown) [CBK037770], the viability at 28.5 h, 10 µM was determined as 103%.

`Cc1ccc(-c2ccc(N3CCN(C(=O)c4ccco4)CC3)nc2)cc1C` [CBK037775]: the viability at 28.5 h, 10 µM was found to be 106%.

As to `O=C(O)c1cccc(-c2ccc(Nc3cccc(NC(=O)c4ccncc4)c3)nc2)c1` [CBK037776], the viability at 28.5 h, 10 µM stood at 101%.

As for `CCC(CO)Nc1cncc(-c2cccc(O)c2)n1` (stereo not shown) [CBK037777], the viability at 28.5 h, 10 µM worked out at 96%.

As to `N#Cc1ccc(-c2cc(NCCc3ccncc3)ncn2)cc1` [CBK037787], the viability at 28.5 h, 10 µM is 98.1%.

For `Cc1ccc(S(=O)(=O)Nc2ccc(Nc3cc(-c4ccsc4)ncn3)cc2)cc1` [CBK037792], the viability at 28.5 h, 10 µM was determined as 96.5%.

`c1ccc(COc2ccccc2-c2cc(N3CCN(c4ccccn4)CC3)ncn2)cc1` [CBK037793]: the viability at 28.5 h, 10 µM came to 97.4%.

On to `COc1cc(CNc2cc(-c3ccsc3)ncn2)cc(OC)c1OC` [CBK037794], for which the viability at 28.5 h, 10 µM was determined as 92%.

`Clc1cccc(-c2cccc(Nc3cccnc3)n2)c1Cl` [CBK037800]: the viability at 28.5 h, 10 µM worked out at 102%.

Turning to `COc1cncc(-c2ccc(N3CCN(C(=O)c4ccco4)CC3)nc2)c1` [CBK037801], the viability at 28.5 h, 10 µM is 96.7%.

In the case of `CC(C)(C)OC(=O)NCc1ccc(-c2ccc(Nc3cccnc3)nc2)cc1` [CBK037804], the viability at 28.5 h, 10 µM was determined as 95.3%.

As for `COc1ccccc1-c1cc(Nc2ccc(NS(=O)(=O)c3ccc(C)cc3)cc2)ncn1` [CBK037819], the viability at 28.5 h, 10 µM is 113%.

`COc1cc(CNc2cc(-c3ccc4c(c3)OCO4)ncn2)cc(OC)c1OC` [CBK037822]: the viability at 28.5 h, 10 µM was 98.9%.

Consider `c1ccc(COc2ccccc2-c2cc(NCCc3ccccn3)ncn2)cc1` [CBK037826], for which the viability at 28.5 h, 10 µM came to 102%.

For `CCCC/C=C/c1cncc(NC2CCC(N)CC2)n1` (stereo not shown) [CBK037827], the viability at 28.5 h, 10 µM stood at 97.2%.

For the compound `COc1ccc(-c2cncc(N(C)CCN(C)C)n2)cc1` [CBK037832], the viability at 28.5 h, 10 µM was 101%.

As to `O=C(c1ccco1)N1CCN(c2cc(-c3cccnc3)ncn2)CC1` [CBK037833], the viability at 28.5 h, 10 µM was determined as 101%.

Source of the values: publication PMC12040169 (PLOS Biology, 2025).
